Results published in US20210030718A1, “COMBINATIONS FOR TREATING CANCER” (ASTRAZENECA AB, priority 2018, published 2021).

Assays:
cleaved caspase-3 = test: Western blot time course of cleaved caspase-3 in OCILy10 and TMD8; type: cell-based; conditions: 1 μM AZD5991 for 8 hr, alone or after 24-hour pre-treatment with 100 nM acalabrutinib
Experimental: Two BTK inhibitor-sensitive ABC-DLBCL cell lines (OCILy10 and TMD8) were treated for an 8-hour time course with either 1 μM AZD5991 alone or following a 24-hour pre-treatment with 100 nM acalabrutinib (since exposure for 24 hours was sufficient to induce maximal BH3-only protein levels). Cells were harvested for protein lysates at varying time points (0, 0.5, 1, 2, 4, and 8 hours) post-AZD5991 treatment, normalized for protein concentration using the BCA Protein Assay Kit, and run for western blots according to standard protocols. To ensure expected target engagement of acalabrutinib, the blots were probed for the proximal biomarker for activated BTK (pBTK Y223). To gauge the time to induction of apoptosis, cleaved caspase-3 was also assessed. A loading control (vinculin) was also utilized for normalization.

OCILy10 tumor cells = test: OCILy10 subcutaneous tumor model, efficacy study; type: in vivo, C.B.-17 SCID female mice; conditions: OCILy10 s.c. in C.B.-17 SCID mice; acalabrutinib 12.5 mg/kg po bid; AZD5991 IV once weekly
Experimental: 5×10^6 OCILy10 tumor cells were injected subcutaneously in the right flank of C.B.-17 SCID female mice in a volume of 0.1 mL containing 50% matrigel. Tumor volumes (measured by caliper), animal body weight, and tumor condition were recorded twice weekly for the duration of the studies. The tumor volume was calculated using the formula: length (mm)×width (mm)^2×0.52. For efficacy studies, growth inhibition from the start of treatment was assessed by comparison of the differences in tumor volume between control and treated groups. Dosing began when mean tumor size reached approximately 150-180 mm^3. CR=complete response. AZD5991 was formulated in 30% HPBCD (hydroxypropyl beta-cyclodextrin) in water for injection and adjusted to pH 9.0 up to a concentration of 30 mg/mL. AZD5991 was dosed IV once weekly. Acalabrutinib was formulated in 0.5% hydroxypropyl methyl cellulose/0.2% Tween 80, and dosed twice a day (bid) on an 8/16 hr split as an oral (po) administration at a volume of 10 mL/kg at a dose of 12.5 mg/kg.

Karpas422 = test: CellTiter-Glo viability, 72 hours; type: cell-based; conditions: Homo sapiens, KARPAS-422, Karpas422, GCB-DLBCL
Experimental: (§1) Two ABC-DLBCL (OCILy10 and TMD8) cell lines and one GCB-DLBCL (Karpas422) cell line were treated with either vehicle (DMSO) or a 10-point, ½ log serially dilution of acalabrutinib for 72 hours with a CellTiter-Glo viability readout.

OCILy10 = test: CellTiter-Glo viability, 72 hours; type: cell-based; conditions: Homo sapiens, OCI-Ly10, OCILy10, ABC-DLBCL
Experimental: as §1

TMD8 = test: CellTiter-Glo viability, 72 hours; type: cell-based; conditions: Homo sapiens, TMD8, ABC-DLBCL
Experimental: as §1

Bim and Bmf = test: Western blot of BH3-only protein levels in DLBCL cell lines; type: cell-based; conditions: 100 nM for 24 hours; OCILy10 and TMD8 relative to the insensitive cell line Karpas422
Experimental: OCILy10, TMD8, and Karpas422 were treated with either vehicle or 100 nM acalabrutinib for 2-72 hours. Protein lysates were harvested at multiple time points in that interval, protein concentration was determined using the BCA Protein Assay Kit, and western blots were performed according to standard protocol to assess the effects on Bcl2 family protein levels. Each sample was normalized to vinculin as a loading control, and then protein levels of acalabrutinib-treated samples were calculated relative to those of vehicle-treated samples.
Each of the three cell lines were then treated with 100 nM acalabrutinib for 24 hours, and BH3-only protein levels were assessed. The levels of pro-apoptotic BH3-only proteins Bim and Bmf were increased in the two acalabrutinib-sensitive DLBCL cell lines relative to the insensitive cell line, priming the cells for apoptosis (FIG. 1). Acalabrutinib increases protein levels of pro-apoptotic proteins, including Bim and Bmf, in BTK inhibitor-sensitive DLBCL cell lines that leads to priming of cells for apoptosis. The results of Example 1 illustrate that diffuse large B-cell […] (DLBCL) cell lines display a differential sensitivity to acalabrutinib.

SMILES: Cc1c2c(nn1C)CSCc1cc(n(C)n1)CSc1cc(c3ccccc3c1)OCCCc1c(C(=O)O)n(C)c3c-2c(Cl)ccc13 (atropisomer, axis not shown; (Ra)) [AZD5991, (Ra)-17-chloro-5,13,14,22-tetramethyl-28-oxa-2,9-dithia-5,6,12,13,22-pentaazaheptacyclo[27.7.1.1^4,7.0^11,15.0^16,21.0^20,24.0^30,35]octatriaconta-1(37),4(38),6,11,14,16,18,20,23,29,31,33,35-tridecaene-23-carboxylic acid]
- induction of cleaved caspase (cleaved caspase-3): no positive caspase activation
- tumor growth inhibition (OCILy10 tumor cells): 44%

SMILES: CC#CC(=O)N1CCC[C@H]1c1nc(-c2ccc(C(=O)Nc3ccccn3)cc2)c2c(N)nccn12 [acalabrutinib, (S)-4-(8-amino-3-(1-but-2-ynoylpyrrolidin-2-yl)imidazo[1,5-a]pyrazin-1-yl)-N-(pyridin-2-yl)benzamide]
- GI50 (Karpas422): > 31000 nM
- GI50 (OCILy10): 10 nM
- GI50 (TMD8): 60 nM
- levels of pro-apoptotic BH3-only proteins Bim and Bmf (Bim and Bmf): increased
- tumor growth inhibition (OCILy10 tumor cells): 79%
